Results reported in ChEMBL document CHEMBL4507268 (2021).

Legend:
[1] = biological target: Tyrosine-protein kinase JAK2 (Homo sapiens) (UniProt O60674); settings: Compound concentration 1000.0 nM
[2] = tested on: Receptor-type tyrosine-protein kinase FLT3 (Homo sapiens), P36888 [R834Q]; settings: Compound concentration 1000.0 nM
[3] = biological target: Serine/threonine-protein kinase mTOR (Homo sapiens) (UniProt P42345); settings: Compound concentration 1000.0 nM
[4] = tested on: Mast/stem cell growth factor receptor Kit (Homo sapiens), P10721 [D816H]; settings: Compound concentration 1000.0 nM
[5] = biological target: T1, NUAK family SNF1-like kinase 2 (Homo sapiens) (UniProt Q9H093); settings: Compound concentration 1000.0 nM
T1 sequence (whole entry): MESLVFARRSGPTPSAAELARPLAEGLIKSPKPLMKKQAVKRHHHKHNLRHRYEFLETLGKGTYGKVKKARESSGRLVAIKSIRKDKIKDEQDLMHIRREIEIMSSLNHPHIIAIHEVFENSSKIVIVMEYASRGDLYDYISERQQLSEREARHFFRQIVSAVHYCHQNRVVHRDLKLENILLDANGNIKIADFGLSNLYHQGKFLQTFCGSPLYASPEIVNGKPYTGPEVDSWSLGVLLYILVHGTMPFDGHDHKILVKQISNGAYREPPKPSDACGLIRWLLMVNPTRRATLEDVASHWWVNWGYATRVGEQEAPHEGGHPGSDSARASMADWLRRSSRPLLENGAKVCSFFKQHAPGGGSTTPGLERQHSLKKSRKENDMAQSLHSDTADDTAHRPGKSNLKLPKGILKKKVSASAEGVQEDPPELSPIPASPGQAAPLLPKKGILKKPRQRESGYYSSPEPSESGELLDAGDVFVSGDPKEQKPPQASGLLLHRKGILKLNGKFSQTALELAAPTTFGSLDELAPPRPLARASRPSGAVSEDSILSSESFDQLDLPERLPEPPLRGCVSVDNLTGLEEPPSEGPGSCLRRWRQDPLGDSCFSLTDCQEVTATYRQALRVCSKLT

[6] = biological target: Ribosomal protein S6 kinase alpha-5 (Homo sapiens) (UniProt O75582); settings: Compound concentration 1000.0 nM
[7] = biological target: T2, Activin receptor type-1 (Homo sapiens) (UniProt Q04771); settings: Compound concentration 1000.0 nM
T2 sequence (whole entry): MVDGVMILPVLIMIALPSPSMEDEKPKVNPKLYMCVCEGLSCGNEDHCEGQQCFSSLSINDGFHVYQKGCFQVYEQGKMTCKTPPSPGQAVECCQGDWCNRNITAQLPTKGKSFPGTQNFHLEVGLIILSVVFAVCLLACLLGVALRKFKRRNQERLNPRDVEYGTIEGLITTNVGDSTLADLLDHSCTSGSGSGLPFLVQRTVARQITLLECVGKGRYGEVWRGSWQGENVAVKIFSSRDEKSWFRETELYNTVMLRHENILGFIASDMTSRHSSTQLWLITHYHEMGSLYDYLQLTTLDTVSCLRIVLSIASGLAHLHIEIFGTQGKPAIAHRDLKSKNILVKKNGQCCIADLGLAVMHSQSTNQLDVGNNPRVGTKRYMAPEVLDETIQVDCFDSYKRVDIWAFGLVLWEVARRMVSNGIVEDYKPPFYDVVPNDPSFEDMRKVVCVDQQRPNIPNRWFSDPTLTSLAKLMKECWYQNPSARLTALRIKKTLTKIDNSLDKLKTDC

[8] = biological target: Citron Rho-interacting kinase (Homo sapiens) (UniProt O14578); settings: Compound concentration 1000.0 nM
[9] = biological target: Maternal embryonic leucine zipper kinase (Homo sapiens) (UniProt Q14680); settings: Compound concentration 1000.0 nM
[10] = biological target: Serine/threonine-protein kinase 24 (Homo sapiens) (UniProt Q9Y6E0); settings: Compound concentration 1000.0 nM
[11] = biological target: Serine/threonine-protein kinase 16 (Homo sapiens) (UniProt O75716); settings: Compound concentration 1000.0 nM
[12] = biological target: Histamine H4 receptor (Homo sapiens) (UniProt Q9H3N8); settings: Compound concentration 10.0 uM
[13] = biological target: Serine/threonine-protein kinase tousled-like 2 (Homo sapiens) (UniProt Q86UE8); settings: Compound concentration 1000.0 nM
[14] = biological target: Serine/threonine-protein kinase PAK 4 (Homo sapiens) (UniProt O96013); settings: Compound concentration 1000.0 nM
[15] = biological target: Mitogen-activated protein kinase kinase kinase 14 (Homo sapiens) (UniProt Q99558); settings: Compound concentration 1000.0 nM
[16] = biological target: T3, Serine/threonine-protein kinase PLK4 (Homo sapiens) (UniProt O00444); settings: Compound concentration 1000.0 nM
T3 sequence (whole entry): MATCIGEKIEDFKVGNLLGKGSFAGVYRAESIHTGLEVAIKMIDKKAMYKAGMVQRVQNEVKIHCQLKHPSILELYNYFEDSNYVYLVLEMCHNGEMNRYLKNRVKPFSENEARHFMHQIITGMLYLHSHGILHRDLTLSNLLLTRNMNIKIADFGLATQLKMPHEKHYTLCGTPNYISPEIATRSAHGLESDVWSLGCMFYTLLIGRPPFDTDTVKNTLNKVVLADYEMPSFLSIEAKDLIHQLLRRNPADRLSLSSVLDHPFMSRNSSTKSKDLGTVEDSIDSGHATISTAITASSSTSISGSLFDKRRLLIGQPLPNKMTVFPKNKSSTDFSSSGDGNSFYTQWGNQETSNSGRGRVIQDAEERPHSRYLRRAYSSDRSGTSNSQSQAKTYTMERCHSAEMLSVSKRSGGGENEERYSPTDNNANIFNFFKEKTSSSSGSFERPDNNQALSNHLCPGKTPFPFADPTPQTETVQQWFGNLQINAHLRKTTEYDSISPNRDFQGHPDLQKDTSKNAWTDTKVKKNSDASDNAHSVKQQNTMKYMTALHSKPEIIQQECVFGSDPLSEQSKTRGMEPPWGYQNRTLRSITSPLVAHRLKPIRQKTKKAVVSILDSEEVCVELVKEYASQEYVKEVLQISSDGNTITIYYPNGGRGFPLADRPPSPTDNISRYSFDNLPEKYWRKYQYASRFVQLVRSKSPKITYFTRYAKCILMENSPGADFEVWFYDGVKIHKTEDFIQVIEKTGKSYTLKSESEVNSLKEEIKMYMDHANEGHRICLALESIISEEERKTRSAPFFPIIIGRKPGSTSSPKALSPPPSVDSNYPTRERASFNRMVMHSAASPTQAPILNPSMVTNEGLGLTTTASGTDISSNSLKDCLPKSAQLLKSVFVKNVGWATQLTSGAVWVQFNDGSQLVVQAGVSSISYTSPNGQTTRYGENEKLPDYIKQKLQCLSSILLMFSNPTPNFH

Sequence of Mitogen-activated protein kinase kinase kinase 14 (Homo sapiens) (Q99558 whole entry, looked up): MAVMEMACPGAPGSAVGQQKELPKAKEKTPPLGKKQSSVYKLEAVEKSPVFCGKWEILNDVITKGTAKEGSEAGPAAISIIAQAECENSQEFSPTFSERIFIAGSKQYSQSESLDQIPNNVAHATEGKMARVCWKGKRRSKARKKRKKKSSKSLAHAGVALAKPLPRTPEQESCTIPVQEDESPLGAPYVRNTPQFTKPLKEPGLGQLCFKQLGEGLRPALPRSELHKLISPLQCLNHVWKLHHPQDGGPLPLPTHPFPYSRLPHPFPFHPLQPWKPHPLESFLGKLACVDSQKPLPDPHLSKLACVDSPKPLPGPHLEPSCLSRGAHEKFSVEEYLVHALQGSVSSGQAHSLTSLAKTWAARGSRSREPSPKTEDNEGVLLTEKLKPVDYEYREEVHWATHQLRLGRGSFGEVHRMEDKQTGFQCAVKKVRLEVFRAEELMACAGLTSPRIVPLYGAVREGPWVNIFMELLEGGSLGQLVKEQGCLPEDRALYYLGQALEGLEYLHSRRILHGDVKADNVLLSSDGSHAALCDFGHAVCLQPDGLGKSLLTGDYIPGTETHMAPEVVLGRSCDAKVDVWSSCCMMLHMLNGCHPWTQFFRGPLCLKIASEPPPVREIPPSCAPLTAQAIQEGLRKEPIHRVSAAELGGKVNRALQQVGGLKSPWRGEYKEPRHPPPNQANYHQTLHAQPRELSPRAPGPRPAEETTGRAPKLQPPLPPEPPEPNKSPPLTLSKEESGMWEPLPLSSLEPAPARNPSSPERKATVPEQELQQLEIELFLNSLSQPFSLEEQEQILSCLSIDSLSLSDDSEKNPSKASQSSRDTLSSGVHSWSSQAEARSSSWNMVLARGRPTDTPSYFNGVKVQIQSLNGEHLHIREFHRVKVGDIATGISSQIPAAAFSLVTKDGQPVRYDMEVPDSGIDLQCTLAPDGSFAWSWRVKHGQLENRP
Sequence of Histamine H4 receptor (Homo sapiens) (Q9H3N8 whole entry): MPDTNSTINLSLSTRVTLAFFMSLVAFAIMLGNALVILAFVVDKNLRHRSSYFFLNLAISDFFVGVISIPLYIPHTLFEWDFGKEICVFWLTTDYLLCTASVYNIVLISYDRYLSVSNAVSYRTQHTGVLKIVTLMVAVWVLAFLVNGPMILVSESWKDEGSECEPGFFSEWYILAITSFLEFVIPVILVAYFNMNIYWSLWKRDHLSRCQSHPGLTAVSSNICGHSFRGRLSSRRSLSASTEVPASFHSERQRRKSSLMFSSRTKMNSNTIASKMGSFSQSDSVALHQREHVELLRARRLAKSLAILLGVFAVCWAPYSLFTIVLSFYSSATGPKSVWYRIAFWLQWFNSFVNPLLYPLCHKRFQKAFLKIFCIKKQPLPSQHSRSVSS
Sequence of Serine/threonine-protein kinase 24 (Homo sapiens) (Q9Y6E0 whole entry, looked up): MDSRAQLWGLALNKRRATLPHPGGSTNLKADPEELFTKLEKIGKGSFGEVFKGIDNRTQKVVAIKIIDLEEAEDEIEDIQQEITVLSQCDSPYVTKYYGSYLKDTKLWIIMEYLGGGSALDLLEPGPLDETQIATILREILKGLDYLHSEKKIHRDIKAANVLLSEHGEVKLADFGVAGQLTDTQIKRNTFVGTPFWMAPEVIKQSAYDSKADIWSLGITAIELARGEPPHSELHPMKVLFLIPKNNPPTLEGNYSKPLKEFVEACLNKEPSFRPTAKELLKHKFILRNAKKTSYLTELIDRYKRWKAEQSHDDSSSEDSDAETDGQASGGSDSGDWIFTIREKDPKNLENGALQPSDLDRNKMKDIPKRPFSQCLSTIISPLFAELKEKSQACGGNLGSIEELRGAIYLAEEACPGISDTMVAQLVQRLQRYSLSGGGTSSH
Sequence of Ribosomal protein S6 kinase alpha-5 (Homo sapiens) (O75582 whole entry, looked up): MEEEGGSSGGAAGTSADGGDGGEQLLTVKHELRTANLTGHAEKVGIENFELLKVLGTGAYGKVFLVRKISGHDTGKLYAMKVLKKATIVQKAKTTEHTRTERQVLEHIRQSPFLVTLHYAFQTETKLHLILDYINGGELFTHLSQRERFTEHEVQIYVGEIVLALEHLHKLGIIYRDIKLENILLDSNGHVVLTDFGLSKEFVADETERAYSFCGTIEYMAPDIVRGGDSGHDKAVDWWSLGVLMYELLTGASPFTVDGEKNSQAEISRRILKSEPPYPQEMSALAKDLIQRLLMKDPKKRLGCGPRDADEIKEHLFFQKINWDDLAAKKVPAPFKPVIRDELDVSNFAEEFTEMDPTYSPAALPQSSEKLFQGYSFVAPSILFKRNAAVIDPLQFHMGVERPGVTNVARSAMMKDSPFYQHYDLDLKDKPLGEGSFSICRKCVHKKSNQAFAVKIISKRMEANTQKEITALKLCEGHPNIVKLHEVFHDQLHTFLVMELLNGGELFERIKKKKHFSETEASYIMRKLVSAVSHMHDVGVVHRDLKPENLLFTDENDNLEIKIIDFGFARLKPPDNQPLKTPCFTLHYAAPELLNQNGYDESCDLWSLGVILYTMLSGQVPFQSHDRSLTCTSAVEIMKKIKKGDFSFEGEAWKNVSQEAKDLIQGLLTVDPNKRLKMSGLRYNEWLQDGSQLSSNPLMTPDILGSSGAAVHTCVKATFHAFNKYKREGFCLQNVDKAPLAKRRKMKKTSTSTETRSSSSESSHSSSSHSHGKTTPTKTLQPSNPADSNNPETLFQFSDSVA
Sequence of Maternal embryonic leucine zipper kinase (Homo sapiens) (Q14680 whole entry, looked up): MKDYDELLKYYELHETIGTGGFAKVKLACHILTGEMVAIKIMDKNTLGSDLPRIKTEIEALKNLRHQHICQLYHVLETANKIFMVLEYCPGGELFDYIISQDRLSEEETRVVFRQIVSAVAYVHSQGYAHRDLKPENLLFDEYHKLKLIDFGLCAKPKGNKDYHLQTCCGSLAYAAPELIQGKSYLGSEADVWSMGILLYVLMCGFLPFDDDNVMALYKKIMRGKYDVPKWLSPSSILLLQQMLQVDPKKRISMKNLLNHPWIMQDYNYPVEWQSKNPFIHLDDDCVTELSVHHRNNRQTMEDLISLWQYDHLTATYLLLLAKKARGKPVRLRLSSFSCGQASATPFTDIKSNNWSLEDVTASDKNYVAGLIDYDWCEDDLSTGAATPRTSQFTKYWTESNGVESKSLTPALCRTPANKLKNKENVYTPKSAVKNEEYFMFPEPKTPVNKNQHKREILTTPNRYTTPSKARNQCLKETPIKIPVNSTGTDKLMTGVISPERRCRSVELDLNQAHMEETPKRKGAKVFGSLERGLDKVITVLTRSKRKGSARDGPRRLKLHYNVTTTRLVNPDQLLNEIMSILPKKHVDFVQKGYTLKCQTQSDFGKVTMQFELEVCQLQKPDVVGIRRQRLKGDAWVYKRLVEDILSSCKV
Sequence of Serine/threonine-protein kinase tousled-like 2 (Homo sapiens) (Q86UE8 whole entry, looked up): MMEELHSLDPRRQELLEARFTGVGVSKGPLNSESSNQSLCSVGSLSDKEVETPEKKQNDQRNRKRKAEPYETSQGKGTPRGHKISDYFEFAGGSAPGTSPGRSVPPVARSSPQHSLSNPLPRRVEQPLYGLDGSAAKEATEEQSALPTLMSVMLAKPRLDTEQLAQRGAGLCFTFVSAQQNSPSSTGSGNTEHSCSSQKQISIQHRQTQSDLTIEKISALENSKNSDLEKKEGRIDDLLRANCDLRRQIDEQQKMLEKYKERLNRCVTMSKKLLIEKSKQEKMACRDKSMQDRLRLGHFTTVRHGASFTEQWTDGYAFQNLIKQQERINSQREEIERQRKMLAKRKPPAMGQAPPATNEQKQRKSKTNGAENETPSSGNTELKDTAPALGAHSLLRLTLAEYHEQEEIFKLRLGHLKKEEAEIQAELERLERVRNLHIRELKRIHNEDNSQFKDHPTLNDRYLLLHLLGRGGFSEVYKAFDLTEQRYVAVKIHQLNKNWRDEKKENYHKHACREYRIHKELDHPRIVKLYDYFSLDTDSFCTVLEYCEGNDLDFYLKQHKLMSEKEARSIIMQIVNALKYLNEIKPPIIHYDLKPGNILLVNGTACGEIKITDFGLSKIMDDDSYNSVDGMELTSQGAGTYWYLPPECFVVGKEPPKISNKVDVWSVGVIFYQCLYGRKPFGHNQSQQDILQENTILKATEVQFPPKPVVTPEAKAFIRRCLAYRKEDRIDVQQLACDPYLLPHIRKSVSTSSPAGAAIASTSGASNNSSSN
Sequence of Serine/threonine-protein kinase 16 (Homo sapiens) (O75716 whole entry): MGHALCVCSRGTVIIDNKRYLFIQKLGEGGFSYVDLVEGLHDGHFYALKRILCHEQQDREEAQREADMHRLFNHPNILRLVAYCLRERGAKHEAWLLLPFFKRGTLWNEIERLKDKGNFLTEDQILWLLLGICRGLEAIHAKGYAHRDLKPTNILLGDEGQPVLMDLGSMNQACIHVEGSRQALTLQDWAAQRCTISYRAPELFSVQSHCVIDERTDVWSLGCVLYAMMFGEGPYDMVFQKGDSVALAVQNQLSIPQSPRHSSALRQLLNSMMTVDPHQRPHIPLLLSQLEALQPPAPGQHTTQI
Sequence of Serine/threonine-protein kinase PAK 4 (Homo sapiens) (O96013 whole entry, looked up): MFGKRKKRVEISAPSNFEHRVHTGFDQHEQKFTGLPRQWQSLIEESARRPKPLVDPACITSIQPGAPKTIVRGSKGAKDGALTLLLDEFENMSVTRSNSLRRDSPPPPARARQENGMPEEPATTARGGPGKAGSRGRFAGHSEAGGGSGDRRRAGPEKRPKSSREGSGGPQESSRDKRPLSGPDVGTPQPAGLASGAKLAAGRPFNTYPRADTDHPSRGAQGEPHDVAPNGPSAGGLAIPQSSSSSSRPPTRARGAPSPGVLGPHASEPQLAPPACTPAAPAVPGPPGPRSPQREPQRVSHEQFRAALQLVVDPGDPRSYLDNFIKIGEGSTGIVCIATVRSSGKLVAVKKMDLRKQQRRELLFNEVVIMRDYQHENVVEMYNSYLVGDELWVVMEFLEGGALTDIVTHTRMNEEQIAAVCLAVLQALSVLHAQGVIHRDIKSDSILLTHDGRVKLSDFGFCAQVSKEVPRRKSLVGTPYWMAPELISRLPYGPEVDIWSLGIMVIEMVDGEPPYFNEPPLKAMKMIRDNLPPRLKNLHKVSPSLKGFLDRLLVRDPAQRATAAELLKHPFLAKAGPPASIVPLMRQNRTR

Cc1nc(C2CCN(C(=O)c3ccc(OC(F)(F)F)cc3N)CC2)c2ncc(N3CCN(C)CC3)cc2n1 [BAY-693]
inactive: residual activity [1] 99% | residual activity [2] 100% | residual activity [3] 78% | residual activity [4] 100% | residual activity [5] 81% | residual activity [6] 90% | residual activity [7] 100% | residual activity [8] 100% | residual activity [9] 93% | residual activity [10] 97% | residual activity [11] 100% | inhibition [12] -5.28% | residual activity [13] 100% | residual activity [14] 100% | residual activity [15] 100% | residual activity [16] 77%

CN1CCN(c2cnc3c(C4CCN(C(=O)c5ccc(OC(F)(F)F)cc5N)CC4)ncnc3c2)CC1 [BAY-885]
inactive: residual activity [1] 83% | residual activity [2] 100% | residual activity [3] 78% | residual activity [4] 100% | residual activity [5] 90% | residual activity [6] 96% | residual activity [7] 100% | residual activity [8] 100% | residual activity [9] 85% | residual activity [10] 100% | residual activity [11] 100% | inhibition [12] -1.34% | residual activity [13] 89% | residual activity [14] 91% | residual activity [15] 100% | residual activity [16] 83%
